Target: Coagulation factor VII/tissue factor (Homo sapiens, UniProt P08709)
Sequence (P08709 61-212 limits assumed): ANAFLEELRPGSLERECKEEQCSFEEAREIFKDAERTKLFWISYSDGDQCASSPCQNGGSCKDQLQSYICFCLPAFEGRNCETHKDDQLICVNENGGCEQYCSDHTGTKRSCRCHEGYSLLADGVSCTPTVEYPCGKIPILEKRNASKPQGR
Sequence (P08709 213-466 limits assumed): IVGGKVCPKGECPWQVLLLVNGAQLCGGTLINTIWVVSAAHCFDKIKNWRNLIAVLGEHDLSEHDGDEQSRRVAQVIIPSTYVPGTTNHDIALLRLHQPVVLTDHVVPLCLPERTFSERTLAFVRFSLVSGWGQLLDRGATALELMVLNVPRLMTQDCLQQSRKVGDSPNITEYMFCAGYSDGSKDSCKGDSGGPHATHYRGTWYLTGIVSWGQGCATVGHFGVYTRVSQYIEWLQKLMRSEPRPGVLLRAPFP
Sequence (P13726 33-295 partner limits assumed): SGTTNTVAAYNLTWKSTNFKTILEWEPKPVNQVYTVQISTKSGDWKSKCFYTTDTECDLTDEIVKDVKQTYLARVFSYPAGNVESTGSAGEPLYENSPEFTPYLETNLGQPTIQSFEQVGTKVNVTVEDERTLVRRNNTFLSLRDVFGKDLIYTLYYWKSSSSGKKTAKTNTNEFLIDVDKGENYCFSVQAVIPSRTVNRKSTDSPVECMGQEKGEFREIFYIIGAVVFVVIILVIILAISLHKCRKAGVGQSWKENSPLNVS
Test: Inhibition of tissue factor/factor 7a
Assay type: protein-complex assay
An IC50 of 8 nM was found for `CC(C)CNC(=O)c1ccc(-c2ccc(-c3ccoc3CO)cc2C(=O)Nc2ccc(C(=N)N)cc2)c(C(=O)O)c1` in this work. An IC50 of 9 nM was found for `C=Cc1ccc(-c2ccc(C(=O)NCC(C)C)cc2C(=O)O)c(C(=O)Nc2ccc(C(=N)N)cc2)c1` in this work. An IC50 of 120 nM was found for `CC(C)CNC(=O)c1ccc(-c2ccccc2C(=O)Nc2ccc(C(=N)N)cc2)c(C(=O)O)c1` in this work. An IC50 of 1220 nM was found for `CC(C)CNC(=O)c1ccc(-c2ccc(CN)cc2C(=O)Nc2ccc(C(=N)N)cc2)c(C(=O)O)c1` in this work. An IC50 of 97 nM was found for `CCc1ccc(-c2ccc(C(=O)NCC(C)C)cc2C(=O)O)c(C(=O)Nc2ccc(C(=N)N)cc2)c1` in this work. An IC50 of 60 nM was found for `CC(C)CNC(=O)c1ccc(-c2ccc(CN=[N+]=[N-])cc2C(=O)Nc2ccc(C(=N)N)cc2)c(C(=O)O)c1` in this work. An IC50 of 9 nM was found for `CC(C)CNC(=O)c1ccc(-c2ccc(-c3cscc3CO)cc2C(=O)Nc2ccc(C(=N)N)cc2)c(C(=O)O)c1` in this work. An IC50 of 20 nM was found for `CC(C)CNC(=O)c1ccc(-c2ccc(-c3cocc3CO)cc2C(=O)Nc2ccc(C(=N)N)cc2)c(C(=O)O)c1` in this work. An IC50 of 45 nM was found for `CC(C)=CCc1ccc(-c2ccc(C(=O)NCC(C)C)cc2C(=O)O)c(C(=O)Nc2ccc(C(=N)N)cc2)c1` in this work. An IC50 of 67 nM was found for `CC(C)CNC(=O)c1ccc(-c2ccc(O)cc2C(=O)Nc2ccc(C(=N)N)cc2)c(C(=O)O)c1` in this work. An IC50 of 9 nM was found for `CC(C)CNC(=O)c1ccc(-c2ccc(-c3cscc3CN=[N+]=[N-])cc2C(=O)Nc2ccc(C(=N)N)cc2)c(C(=O)O)c1` in this work.

Target: Prothrombin (Homo sapiens, UniProt P00734)
Test: Inhibition of thrombin
An IC50 greater than 50000 nM was found for `CC(C)CNC(=O)c1ccc(-c2ccc(-c3ccoc3CO)cc2C(=O)Nc2ccc(C(=N)N)cc2)c(C(=O)O)c1` in this work. An IC50 of 9400 nM was found for `C=Cc1ccc(-c2ccc(C(=O)NCC(C)C)cc2C(=O)O)c(C(=O)Nc2ccc(C(=N)N)cc2)c1` in this work. An IC50 of 64000 nM was found for `CC(C)CNC(=O)c1ccc(-c2ccccc2C(=O)Nc2ccc(C(=N)N)cc2)c(C(=O)O)c1` in this work. An IC50 of 12300 nM was found for `CCc1ccc(-c2ccc(C(=O)NCC(C)C)cc2C(=O)O)c(C(=O)Nc2ccc(C(=N)N)cc2)c1` in this work. An IC50 of 63100 nM was found for `CC(C)CNC(=O)c1ccc(-c2ccc(-c3cscc3CO)cc2C(=O)Nc2ccc(C(=N)N)cc2)c(C(=O)O)c1` in this work. An IC50 greater than 50000 nM was found for `CC(C)CNC(=O)c1ccc(-c2ccc(-c3cocc3CO)cc2C(=O)Nc2ccc(C(=N)N)cc2)c(C(=O)O)c1` in this work. An IC50 of 13000 nM was found for `CC(C)=CCc1ccc(-c2ccc(C(=O)NCC(C)C)cc2C(=O)O)c(C(=O)Nc2ccc(C(=N)N)cc2)c1` in this work. An IC50 of 50000 nM was found for `CC(C)CNC(=O)c1ccc(-c2ccc(O)cc2C(=O)Nc2ccc(C(=N)N)cc2)c(C(=O)O)c1` in this work. An IC50 of 157000 nM was found for `CC(C)CNC(=O)c1ccc(-c2ccc(-c3cscc3CN=[N+]=[N-])cc2C(=O)Nc2ccc(C(=N)N)cc2)c(C(=O)O)c1` in this work.

Target: Plasminogen (Homo sapiens, UniProt P00747)
Sequence (P00747 97-580 limits assumed): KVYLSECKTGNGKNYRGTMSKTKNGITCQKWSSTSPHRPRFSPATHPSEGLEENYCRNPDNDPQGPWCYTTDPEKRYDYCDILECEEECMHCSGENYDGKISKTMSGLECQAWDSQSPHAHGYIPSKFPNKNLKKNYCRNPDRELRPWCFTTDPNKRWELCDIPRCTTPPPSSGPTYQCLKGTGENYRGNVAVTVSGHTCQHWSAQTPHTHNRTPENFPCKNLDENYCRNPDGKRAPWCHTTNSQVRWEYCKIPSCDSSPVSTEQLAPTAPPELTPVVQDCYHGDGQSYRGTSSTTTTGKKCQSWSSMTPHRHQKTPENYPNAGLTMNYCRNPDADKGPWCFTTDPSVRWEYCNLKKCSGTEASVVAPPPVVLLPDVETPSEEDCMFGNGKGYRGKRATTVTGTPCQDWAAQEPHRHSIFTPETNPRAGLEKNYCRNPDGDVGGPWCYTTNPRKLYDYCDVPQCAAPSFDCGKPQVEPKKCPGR
Sequence (P00747 581-810 limits assumed): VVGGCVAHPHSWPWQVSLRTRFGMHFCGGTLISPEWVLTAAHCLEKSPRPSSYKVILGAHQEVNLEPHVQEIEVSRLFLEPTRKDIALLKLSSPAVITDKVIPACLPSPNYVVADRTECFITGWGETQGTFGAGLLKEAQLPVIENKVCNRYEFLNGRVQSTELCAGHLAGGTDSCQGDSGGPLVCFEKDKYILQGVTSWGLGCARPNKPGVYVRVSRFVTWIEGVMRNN
Test: Inhibition of plasmin
An IC50 of 457 nM was found for `CC(C)CNC(=O)c1ccc(-c2ccc(-c3ccoc3CO)cc2C(=O)Nc2ccc(C(=N)N)cc2)c(C(=O)O)c1` in this work. An IC50 greater than 5000 nM was found for `CCc1ccc(-c2ccc(C(=O)NCC(C)C)cc2C(=O)O)c(C(=O)Nc2ccc(C(=N)N)cc2)c1` in this work. An IC50 of 60 nM was found for `CC(C)CNC(=O)c1ccc(-c2ccc(-c3cscc3CO)cc2C(=O)Nc2ccc(C(=N)N)cc2)c(C(=O)O)c1` in this work. An IC50 of 554 nM was found for `CC(C)CNC(=O)c1ccc(-c2ccc(-c3cocc3CO)cc2C(=O)Nc2ccc(C(=N)N)cc2)c(C(=O)O)c1` in this work. An IC50 of 308 nM was found for `CC(C)=CCc1ccc(-c2ccc(C(=O)NCC(C)C)cc2C(=O)O)c(C(=O)Nc2ccc(C(=N)N)cc2)c1` in this work. An IC50 of 242 nM was found for `CC(C)CNC(=O)c1ccc(-c2ccc(-c3cscc3CN=[N+]=[N-])cc2C(=O)Nc2ccc(C(=N)N)cc2)c(C(=O)O)c1` in this work.

System: not listed separately
Test: Selectivity ratio of IC50 for tissue factor/factor 7a to IC50 for trypsin
A Ratio IC50 of 92.5 was found for `CC(C)CNC(=O)c1ccc(-c2ccc(-c3ccoc3CO)cc2C(=O)Nc2ccc(C(=N)N)cc2)c(C(=O)O)c1` in this work. A Ratio IC50 of 52.2 was found for `C=Cc1ccc(-c2ccc(C(=O)NCC(C)C)cc2C(=O)O)c(C(=O)Nc2ccc(C(=N)N)cc2)c1` in this work. A Ratio IC50 of 1.5 was found for `CC(C)CNC(=O)c1ccc(-c2ccccc2C(=O)Nc2ccc(C(=N)N)cc2)c(C(=O)O)c1` in this work. A Ratio IC50 of 61.8 was found for `CCc1ccc(-c2ccc(C(=O)NCC(C)C)cc2C(=O)O)c(C(=O)Nc2ccc(C(=N)N)cc2)c1` in this work. A Ratio IC50 of 56.7 was found for `CC(C)CNC(=O)c1ccc(-c2ccc(-c3cscc3CO)cc2C(=O)Nc2ccc(C(=N)N)cc2)c(C(=O)O)c1` in this work. A Ratio IC50 of 114 was found for `CC(C)CNC(=O)c1ccc(-c2ccc(-c3cocc3CO)cc2C(=O)Nc2ccc(C(=N)N)cc2)c(C(=O)O)c1` in this work. A Ratio IC50 of 21.1 was found for `CC(C)=CCc1ccc(-c2ccc(C(=O)NCC(C)C)cc2C(=O)O)c(C(=O)Nc2ccc(C(=N)N)cc2)c1` in this work. A Ratio IC50 of 5.7 was found for `CC(C)CNC(=O)c1ccc(-c2ccc(O)cc2C(=O)Nc2ccc(C(=N)N)cc2)c(C(=O)O)c1` in this work. A Ratio IC50 of 133 was found for `CC(C)CNC(=O)c1ccc(-c2ccc(-c3cscc3CN=[N+]=[N-])cc2C(=O)Nc2ccc(C(=N)N)cc2)c(C(=O)O)c1` in this work.

Target: Coagulation factor X (Homo sapiens, UniProt P00742)
Sequence (P00742 41-179 limits assumed): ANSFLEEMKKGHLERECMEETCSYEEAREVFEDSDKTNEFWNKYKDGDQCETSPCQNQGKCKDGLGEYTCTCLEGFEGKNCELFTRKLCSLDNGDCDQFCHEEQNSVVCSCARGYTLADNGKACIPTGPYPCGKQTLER
Sequence (P00742 235-488 limits assumed): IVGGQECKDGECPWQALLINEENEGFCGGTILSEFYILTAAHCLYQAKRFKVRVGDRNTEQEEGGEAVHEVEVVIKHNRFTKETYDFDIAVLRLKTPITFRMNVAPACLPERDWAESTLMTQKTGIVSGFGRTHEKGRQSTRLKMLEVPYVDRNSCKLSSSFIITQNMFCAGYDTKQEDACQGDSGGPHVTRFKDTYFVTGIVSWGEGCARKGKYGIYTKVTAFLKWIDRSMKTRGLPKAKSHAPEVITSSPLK
An IC50 of 20 nM was found for `CC(C)CNC(=O)c1ccc(-c2ccc(-c3ccoc3CO)cc2C(=O)Nc2ccc(C(=N)N)cc2)c(C(=O)O)c1` in this work. An IC50 of 1650 nM was found for `C=Cc1ccc(-c2ccc(C(=O)NCC(C)C)cc2C(=O)O)c(C(=O)Nc2ccc(C(=N)N)cc2)c1` in this work. An IC50 of 103000 nM was found for `CC(C)CNC(=O)c1ccc(-c2ccccc2C(=O)Nc2ccc(C(=N)N)cc2)c(C(=O)O)c1` in this work. An IC50 of 50000 nM was found for `CCc1ccc(-c2ccc(C(=O)NCC(C)C)cc2C(=O)O)c(C(=O)Nc2ccc(C(=N)N)cc2)c1` in this work. An IC50 of 130 nM was found for `CC(C)CNC(=O)c1ccc(-c2ccc(-c3cscc3CO)cc2C(=O)Nc2ccc(C(=N)N)cc2)c(C(=O)O)c1` in this work. An IC50 of 230 nM was found for `CC(C)CNC(=O)c1ccc(-c2ccc(-c3cocc3CO)cc2C(=O)Nc2ccc(C(=N)N)cc2)c(C(=O)O)c1` in this work. An IC50 of 27000 nM was found for `CC(C)=CCc1ccc(-c2ccc(C(=O)NCC(C)C)cc2C(=O)O)c(C(=O)Nc2ccc(C(=N)N)cc2)c1` in this work. An IC50 of 50000 nM was found for `CC(C)CNC(=O)c1ccc(-c2ccc(O)cc2C(=O)Nc2ccc(C(=N)N)cc2)c(C(=O)O)c1` in this work. An IC50 of 50 nM was found for `CC(C)CNC(=O)c1ccc(-c2ccc(-c3cscc3CN=[N+]=[N-])cc2C(=O)Nc2ccc(C(=N)N)cc2)c(C(=O)O)c1` in this work.

Reference: ChEMBL document CHEMBL1137759, “Design, parallel synthesis, and crystal structures of biphenyl antithrombotics as selective inhibitors of tissue factor FVIIa complex. Part 1: Exploration of S2 pocket pharmacophores” (Bioorg Med Chem, 2009)
